We go through six molecules from the supplement of paper PMC11061612.

Assay [1] concerns NCI-N87 (Gastric Carcinoma). Nature of the assay: combination Emax (second highest fraction inhibited in the dose matrix, 72 h); higher = more inhibition; extreme values may be limits of the assay. Put shortly:
(§1)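 Bliss excess equals the observed combination effect minus the expected value EA + EB − EA·EB, where EA and EB are the effects of each agent alone. Combination Emax is the second-highest inhibition within the matrix. Inhibition was scaled from CellTiter-Glo 2.0 luminescence, with 0 set by vehicle wells and 1 by blank wells, after 72 hours of two-drug dosing of cells plated in 1536-well plates.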

Assay [2] concerns NCI-H513 (Other Solid Carcinomas). The assay is described as above. An outline of the steps: as §1
Assay [3] concerns OCUM-1 (Gastric Carcinoma). The description is as above. An outline of the steps: as §1
The test system of assay [4] is PFSK-1 (Other Solid Carcinomas). The assay is described as above. An outline of the steps:
as §1

In assay [5] the test system is KYSE-150 (Esophageal Squamous Cell Carcinoma). The description is as above. An outline of the steps: as §1
In assay [6] the test system is LC4-1 (B-Lymphoblastic Leukemia). Described as above. Put shortly:
as §1

The subject of assay [7] is ASH-3 (Thyroid Gland Carcinoma). The assay is described as above. Put shortly: as §1
In assay [8] the test system is SCC-9 (Oral Cavity Carcinoma). In words: Bliss excess, mean over the matrix (fraction); higher = more synergy. An outline of the steps: as §1
In assay [9] the test system is VMRC-LCD (Lung Adenocarcinoma). The assay is described as above. An outline of the steps: as §1
The test system of assay [10] is OCUB-M (Breast Carcinoma). The assay is described as above. Put shortly: as §1
Assay [11] concerns BV-173 (Chronic Myelogenous Leukemia). Described as above. Put shortly:
as §1

For a further assay, the system named is EW-18 (Ewing's Sarcoma). The assay is described as above. An outline of the steps: as §1
For assay [12], the system named is PFSK-1 (Other Solid Carcinomas). The assay is described as above. An outline of the steps:
as §1

Assay [13] relates to MFE-319 (Endometrial Carcinoma). Described as above. Put shortly:
as §1

Assay [14] has as its system H-EMC-SS (Chondrosarcoma). The assay is described as above. Put shortly: as §1
The subject of assay [15] is TGBC11TKB (Gastric Carcinoma). The description is as above. An outline of the steps:
as §1

In the next assay the test system is NB7 (Neuroblastoma). The assay is described as above. An outline of the steps:
as §1

The subject of assay [16] is ASH-3 (Thyroid Gland Carcinoma). Described as above. An outline of the steps: as §1
The subject of assay [17] is JHH-7 (Hepatocellular Carcinoma). The description is as above. An outline of the steps: as §1
Assay [18] concerns NCI-H322M (Lung Adenocarcinoma). Described as above. An outline of the steps: as §1

With `Cc1c2c(nn1C)CSCc1cc(n(C)n1)CSc1cc(c3ccccc3c1)OCCCc1c(C(=O)O)n(C)c3c-2c(Cl)ccc13` [AZD5991] + C[C@@H]1COCCN1C2=NC(=NC(=C2)C3(CC3)[S@](=N)(=O)C)C4=C5C=CNC5=NC=C4 [AZD6738] (first compound max 1 µM, 7x7, partner max 10 µM), the “combination Emax” value in assay [1] was 0.688; in [2] it was 0.344; in assay [3], 0.71; in assay [4], 1; in assay [5] it was 0.543; in assay [6], 0.981. Moreover, the “combination Emax” value in [7] was 0.566. In addition, the Bliss excess in [8] is 0.0134; in [9] it was 0.0179; in [10], 0.0339; in assay [11], -0.0537; in the assay on EW-18 (Ewing's Sarcoma), -0.0141; in assay [12] it was 0.0139. In addition, the Bliss excess is 0.05 in [13]; 0.0187 in assay [14]; -0.0218 in assay [15]; 0.028 with NB7 (Neuroblastoma); 0.0554 in assay [16]; 0.0642 in [17]. For the same molecule, in [18], the Bliss excess was found to be 0.0012.

Turning to `CS(=O)(=O)CCNCc1ccc(-c2ccc3ncnc(Nc4ccc(OCc5cccc(F)c5)c(Cl)c4)c3c2)o1` [Lapatinib] + C[C@@H](Oc1cc(-c2cnn(C3CCNCC3)c2)cnc1N)c1c(Cl)ccc(F)c1Cl [Crizotinib] (first compound max 10 µM, 7x7, partner max 10 µM), the “combination Emax” value in assay [1] came out at 0.978; in [2], 0.557; in assay [3] it was 0.596; in assay [4] it was 0.956; in assay [5] it was 0.984; in assay [6], 0.963. In [7], the “combination Emax” value came to 0.908. For the same molecule, the Bliss excess in [8] is 0.0015; in assay [9], -0.0246; in assay [10], -0.0465; in assay [11] it was -0.037; in the assay on EW-18 (Ewing's Sarcoma), -0.0533; in assay [12] it was -0.0546. The Bliss excess in [13] is -0.0205; in assay [14] it was -0.0192; in [15] it was -0.027; in the assay on NB7 (Neuroblastoma) it was -0.0172; in [16], -0.0207; in assay [17] it was -0.0055. Moreover, the Bliss excess in assay [18] came to 0.0188.

Regarding `COc1nnc2ccc(N3CCC(c4ccc(OCCN5CCN(C)C(=O)[C@H]5C)cc4)CC3)nn12` [AZD5153] + Cn1cnc2c(F)c(Nc3ccc(Br)cc3Cl)c(C(=O)NOCCO)cc21 [Selumetinib] (first compound max 1 µM, 7x7, partner max 10 µM), the “combination Emax” value in [1] came to 0.567; in assay [2], 0.499; in assay [3], 0.909; in assay [4], 0.664; in [5], 0.661; in assay [6] it was 0.975. In addition, the “combination Emax” value in assay [7] is 0.713. Also, the Bliss excess in [8] was 0.042; in assay [9] it was -0.0401; in assay [10] it was -0.0036; in [11], -0.0503; in the assay on EW-18 (Ewing's Sarcoma), -0.0364; in assay [12], 0.0031. For the same molecule, the Bliss excess is -0.0265 in [13]; 0.0176 in [14]; 0.0671 in [15]; -0.0011 with NB7 (Neuroblastoma); -0.0338 in [16]; -0.0274 in assay [17]. For the same molecule, the Bliss excess in assay [18] worked out at 0.0052.

Regarding `C[C@@H](c1ccc2nccn2c1)n1nnc2ncc(-c3cnn(C)c3)nc21` [Savolitinib] + CC1(C)CCC(CN2CCN(c3ccc(C(=O)NS(=O)(=O)c4ccc(NCC5CCOCC5)c([N+](=O)[O-])c4)c(Oc4cnc5[nH]ccc5c4)c3)CC2)=C(c2ccc(Cl)cc2)C1 [Venetoclax] (first compound max 1 µM, 7x7, partner max 1 µM), the “combination Emax” value in assay [1] was 0.22; in assay [2], 0.0676; in assay [3] it was 0.187; in assay [4], 0.302; in assay [5], 0.189; in assay [6] it was 1. Also, the “combination Emax” value in assay [7] amounted to 0.16. The Bliss excess in assay [8] was -0.0328; in assay [9] it was -0.0153; in assay [10], -0.0371; in assay [11], 0.0064; in the assay with EW-18 (Ewing's Sarcoma) it was -0.067; in assay [12], -0.0025. The Bliss excess is -0.0764 in assay [13]; -0.0186 in [14]; -0.0367 in assay [15]; -0.0221 in the assay on NB7 (Neuroblastoma); -0.0329 in [16]; -0.0342 in [17]. Moreover, in assay [18], the Bliss excess is -0.0536.

For the molecule `CN(CCO)CC[C@H](CSc1ccccc1)Nc1ccc(S(=O)(=O)NC(=O)c2ccc(N3CCC([C@@H](O)c4ccccc4-c4ccc(Cl)cc4)CC3)cc2)cc1S(=O)(=O)C(F)(F)F` [AZD4320] + C1CN(CCC1(C(=O)N[C@@H](CCO)C2=CC=C(C=C2)Cl)N)C3=NC=NC4=C3C=CN4 [Capivasertib] (first compound max 1 µM, 7x7, partner max 3 µM), the “combination Emax” value in [1] was determined as 0.571; in assay [2], 0.122; in assay [3], 0.861; in assay [4], 0.568; in [5], 0.347; in assay [6], 1. The “combination Emax” value in assay [7] amounted to 0.59. The Bliss excess in [8] was -0.0761; in assay [9], -0.0521; in assay [10], -0.0174; in assay [11] it was -0.0135; with EW-18 (Ewing's Sarcoma) it was -0.0124; in assay [12], 0.078. In addition, the Bliss excess in assay [13] was -0.0081; in [14], -0.0081; in [15], -0.0398; in the assay on NB7 (Neuroblastoma) it was -0.0403; in assay [16], -0.0192; in assay [17], -0.0256. The Bliss excess in [18] is -0.0402.

As for `CC(=O)c1c(C)c2cnc(Nc3ccc(N4CCNCC4)cn3)nc2n(C2CCCC2)c1=O` [Palbociclib] + Cn1cnc2c(F)c(Nc3ccc(Br)cc3Cl)c(C(=O)NOCCO)cc21 [Selumetinib] (first compound max 10 µM, 7x7, partner max 10 µM), the “combination Emax” value in assay [1] amounted to 0.498; in assay [2], 0.305; in assay [3], 0.944; in [4], 0.138; in [5], 0.684; in assay [6], 0.614. Besides, the “combination Emax” value in assay [7] is 0.403. The Bliss excess is 0.0811 in assay [8]; -0.0448 in [9]; -0.0413 in assay [10]; -0.0657 in [11]; -0.0542 with EW-18 (Ewing's Sarcoma); -0.0505 in [12]. For the same molecule, the Bliss excess in [13] is 0.0042; in assay [14], 0.008; in assay [15] it was 0.0327; in the assay on NB7 (Neuroblastoma) it was 0.0136; in assay [16], -0.0805; in assay [17] it was -0.0039. Besides, the Bliss excess in assay [18] was found to be 0.0515.
